Test results: patent US20130231316A1, “Drug Combination Comprising a Selective Serotonin Reuptake Inhibitor and a Glucocorticoid Receptor Antagonist for the Treatment of Depression” (priority 2004, published 2013)
Like-named read-outs stand apart in the source and are kept apart here.

Tested on: 5-HT1A autoreceptor
Details: fluoxetine 10 mg/kg i.p. daily, Org 34850 15 mg/kg i.p. twice daily or vehicle, fall following i.p. injection of fluoxetine 10 mg/kg, prefrontal cortex
Method: In experimental animals this desensitization can be measured using microdialysis in the prefrontal cortex and a combination of local administration of an SSRI (fluoxetine) in the region of the probe to block local uptake and systemic injection which affects all uptake sites and leads to 5-HT1A autoreceptor activation.
Studies were performed on Hooded Lister rats housed in groups of three with food and water available ad libitum. Animals were kept in controlled environmental conditions: temperature (20° C.) and humidity (30-50%) on a 12 h light/dark cycle (lights on 07.00 a.m.). Each cage received the same treatment and animals from a single cage studied on the same day to avoid social isolation. Animals underwent two treatments; vehicle or GR antagonist (15 mg/kg Org 34850, intraperitoneally (i.p.)) given as twice daily injections at 07:00-07:30 and 19:00-19:30. All animals received a single daily injection of fluoxetine (10 mg/kg in sterile water i.p.) given in the morning. Treatment periods were 0 (control), 3, 7 or 14 days.
For microdialysis animals were anaesthetised with chloral hydrate (500 mg/kg i.p. plus supplementary doses as required). Surgery was undertaken to position a microdialysis probe in the right prefrontal cortex (stereotaxic coordinates: rostral +3.2 mm, lateral 0.5 mm, ventral −4.6 mm from bregma and dura surface). The probe was perfused with artificial cerebrospinal fluid (aCSF) for 3 h until stable basal level of 5-HT is achieved. Samples were collected every 20 minutes and analysed by HPLC with electrochemical detection. The experimental protocol comprised three phases: i) Basal extracellular levels of 5-HT were measured for 60 min.; ii) Fluoxetine (10 μM) was added to the aCSF to block local uptake in order to measure total release rate. Samples were collected for 80 min. and iii) Fluoxetine was injected i.p. (10 mg/kg) to block all uptake sites, including at the autoreceptor, and samples were collected for 120 min. The magnitude of the fall in measured 5-HT levels after this injection was used as a measure of autoreceptor sensitivity.

CNCCC(Oc1ccc(C(F)(F)F)cc1)c1ccccc1 (stereo not drawn) [fluoxetine]
Mean Fall in 5-HT levels (3 days pretreatment): 7.59 fmol | Mean Fall in 5-HT levels (7 days pretreatment): 7.37 fmol | Mean Fall in 5-HT levels (14 days pretreatment): 4.85 fmol
